Structures are written as SMILES. pIC50: −log10 of the molar value.

The record followed here is patent publication US12421222B2 (AUGUSTINE THERAPEUTICS, priority 2021, dated 2025).

The assay has as its system acetylated tubulin (Lys40) in HeLa cells. The assay is described as follows: Acetylated α-tubulin measurement in vitro (immunocytochemistry). It is filed as cell-based. As to conditions: Homo sapiens, 6 hours incubation, acetylated tubulin (Lys40) by immunocytochemistry, read-out: IC50 (Tubulin deacetylation). As to the method: HeLa cells were cultured in UltraCulture serum-free medium (Lonza) supplemented with 2 mM glutamine (Lonza). Assays were performed at 96-well or 384-well format, differences in assay protocols are detailed in Table 6. Cells per well were plated and incubated overnight at 37° C. overnight in a humidified atmosphere containing 5% CO2. Cell density and seeding volumes are detailed in Table 6. Compounds (dissolved in 100% DMSO) or DMSO (vehicle) were added manually by diluting them in culture medium at 10× final assay concentration and adding 10 μL to cells (96-well protocol). Alternatively, 50 nL compound was added directly to the cell culture using the Echo650 (Labcyte) (384-well protocol). In this assay, the final assay concentration of DMSO is 0.1%-0.4%. Trichostatin A (TSA) was used as a positive control. Cells were incubated with compounds at 37° C. in a humidified atmosphere containing 5% CO2 for 6 hours. Levels of acetylated tubulin (Lys40) were assessed by immunocytochemistry using target-specific antibodies. Cells were fixed with 4% PFA at RT as detailed in Table 6. After 2-3 wash steps with PBS, cells were permeabilized with 0.5% Triton in PBS at RT for 10 minutes followed by 1-2 washes with PBS. To avoid non-specific antibody staining, cells were blocked with 3% BSA in PBS at room temperature for 1 hour. […] Cells were washed 2-3 times with PBS and labelled for 1 h at RT with goat anti-mouse conjugated with Alexa 647 (Thermofisher) and goat anti-rabbit conjugated with Alexa 555 (Thermofisher) secondary antibodies, diluted in 1% BSA to a final concentration of 1:1000. Simultaneously, nuclei were stained with 1:10000-1:15000 Hoechst (Thermofisher). Incubation time and temperature of the primary antibodies are detailed in Table 6. Cells were washed 2-3 times with PBS and they were imaged with the Operetta CLS or Opera Phenix (PerkinElmer). Imaging is further detailed in Table 6. For imaging analysis, the Harmony analysis software (PerkinElmer) was used. Cytoplasmic (defined by total α-tubulin staining) intensities per well were used for α-tubulin (acetylated and total) quantification. Intensities were measured per cell and then averaged per well. Mean intensity levels of acetylated tubulin were normalized to the mean intensity levels of total tubulin. The changes in acetylated tubulin were normalized for each plate using GraphPad Prism software: tubulin acetylation in vehicle (DMSO)-treated cells were set to 0% while tubulin acetylation in TSA-treated cells were set to 100%. EC50 values were calculated using the log(inhibitor) vs. response—Variable slope (four parameters) nonlinear regression in GraphPad Prism software.
Usually pIC50 stands for the IC50 on a negative log10 scale, so that one unit is a factor of ten. On to `Cn1ncc2c(SCC(=O)c3ncc(CNC(=O)C(C)(C)C)s3)ncnc21` [Example 27, N-((2-(2-((1-methyl-1H-pyrazolo[3,4-d]pyrimidin-4-yl)thio)acetyl)thiazol-5-yl)methyl)pivalamide], for which the negative-log IC50 (pIC50) is 5.48 to 6.00.
Under `Cc1nc(SCC(=O)c2ccc(CNC(=O)CO)s2)c2cc(F)cnc2n1` [Example 124, N-((5-(2-((6-fluoro-2-methylpyrido[2,3-d]pyrimidin-4-yl)thio)acetyl)thiophen-2-yl)methyl)-2-hydroxyacetamide] stands no less than 7.00; under `Cn1cc2c(SCC(=O)c3ccc(CNC(=O)C4(O)CC4)s3)nc(C(F)(F)F)nc2n1` [Example 49, 1-hydroxy-N-((5-(2-((2-methyl-6-(trifluoromethyl)-2H-pyrazolo[3,4-d]pyrimidin-4-yl)thio)acetyl)thiophen-2-yl)methyl)cyclopropane-1-carboxamide], 6.30 to 7.00.
In the case of `Cn1cc2c(SCC(=O)c3ccc(CNC(=O)C(C)(C)C)s3)nc(C(F)(F)F)nc2n1` [Example 22, N-((5-(2-((2-methyl-6-(trifluoromethyl)-2H-pyrazolo[3,4-d]pyrimidin-4-yl)thio)acetyl)thiophen-2-yl)methyl)pivalamide] it was 6.30 to 7.00; in that of `CC(NC(=O)CO)c1ccc(C(=O)CSc2nc3cnc(C(F)(F)F)cc3o2)s1` (stereo in doubt) [Example 129, (S)-2-hydroxy-N-(1-(5-(2-((6-(trifluoromethyl)oxazolo[4,5-c]pyridin-2-yl)thio)acetyl)thiophen-2-yl)ethyl)acetamide], 6.30 to 7.00; in that of `Cc1nc(SCC(=O)c2ccc(CNC(=O)CO)s2)c2cc(OC(F)(F)F)ccc2n1` [Example 126, 2-hydroxy-N-((5-(2-((2-methyl-6-(trifluoromethoxy)quinazolin-4-yl)thio)acetyl)thiophen-2-yl)methyl)acetamide], no less than 7.00.
In the case of `O=C(CSc1nc(C(F)(F)F)nc2ncccc12)c1ccc(CN2CCC(O)C2=O)s1` (stereo in doubt) [Example 156, (R)-3-hydroxy-1-((5-(2-((2-(trifluoromethyl)pyrido[2,3-d]pyrimidin-4-yl)thio)acetyl)thiophen-2-yl)methyl)pyrrolidin-2-one] it was no less than 7.00.
Take `Cc1nc(SCC(=O)c2ccc(CNS(C)(=O)=O)s2)c2ccccc2n1` [Example 97, N-((5-(2-((2-methylquinazolin-4-yl)thio)acetyl)thiophen-2-yl)methyl)methanesulfonamide]: the pIC50 is 5.48 to 6.00.
Under `Cn1ncc2c(SCC(=O)c3ccc(CN4CCCC4=O)s3)ncnc21` [Example 25, 1-((5-(2-((1-methyl-1H-pyrazolo[3,4-d]pyrimidin-4-yl)thio)acetyl)thiophen-2-yl)methyl)pyrrolidin-2-one] stands less than 5.48.
In the case of `O=C(CSc1nc(C(F)(F)F)nc2ncccc12)c1ccc(CN2CCCC2=O)s1` [Example 157, 1-((5-(2-((2-(trifluoromethyl)pyrido[2,3-d]pyrimidin-4-yl)thio)acetyl)thiophen-2-yl)methyl)pyrrolidin-2-one] it was no less than 7.00; in that of `COc1cc(C(F)(F)F)cc2c(SCC(=O)c3ccc(CNC(=O)CO)s3)nc(C)nc12` [Example 148, 2-hydroxy-N-((5-(2-((8-methoxy-2-methyl-6-(trifluoromethyl)quinazolin-4-yl)thio)acetyl)thiophen-2-yl)methyl)acetamide], no less than 7.00; in that of `CN(Cc1ccc(C(=O)CSc2ncnc3c2cnn3C)s1)C(=O)C1CC1` [Example 34, N-methyl-N-((5-(2-((1-methyl-1H-pyrazolo[3,4-d]pyrimidin-4-yl)thio)acetyl)thiophen-2-yl)methyl)cyclopropanecarboxamide], 5.48 to 6.00.
Under `Cc1nc(SCC(=O)c2ccc(CNC(=O)C3CC3(F)F)s2)c2cc(OC(F)(F)F)ccc2n1` (centres unmarked) [Example 120, 2,2-difluoro-N-((5-(2-((2-methyl-6-(trifluoromethoxy)quinazolin-4-yl)thio)acetyl)thiophen-2-yl)methyl)cyclopropane-1-carboxamide] stands 6.30 to 7.00; under `CN(Cc1ccc(C(=O)CSc2nc(C(F)(F)F)nc3nn(C)cc23)s1)C(=O)CO` [Example 116, 2-hydroxy-N-methyl-N-((5-(2-((2-methyl-6-(trifluoromethyl)-2H-pyrazolo[3,4-d]pyrimidin-4-yl)thio)acetyl)thiophen-2-yl)methyl)acetamide], 6.30 to 7.00.
`Cc1nc(SCC(=O)c2ccc(CNC(=O)CO)s2)c2cc(N3CCC(F)(F)C3)ccc2n1` [Example 84, N-((5-(2-((6-(3,3-difluoropyrrolidin-1-yl)-2-methylquinazolin-4-yl)thio)acetyl)thiophen-2-yl)methyl)-2-hydroxyacetamide]: the pIC50 is no less than 7.00.
On to `O=C(CO)NCc1ccc(C(=O)CSc2nc(C(F)(F)F)nc3ccc(N4CCOCC4)cc23)s1` [Example 63], for which the negative logarithm of the IC50 (pIC50) was 6.30 to 7.00.
Under `COc1ccc2nc(C)nc(SCC(=O)c3ccc(CN4CCOCC4=O)s3)c2c1` [Example 137, 4-((5-(2-((6-methoxy-2-methylquinazolin-4-yl)thio)acetyl)thiophen-2-yl)methyl)morpholin-3-one] stands 6.30 to 7.00.
In the case of `COc1ccc2nc(C)nc(SCC(=O)c3ccc(CNC(=O)CN)s3)c2c1` [Example 177, 2-amino-N-((5-(2-((6-methoxy-2-methylquinazolin-4-yl)thio)acetyl)thiophen-2-yl)methyl)acetamide] it was no less than 7.00; in that of `CNc1cc(C(F)(F)F)cc2c(SCC(=O)c3ccc(CNC(=O)CO)s3)nc(C)nc12` [Example 151, 2-hydroxy-N-((5-(2-((2-methyl-8-(methylamino)-6-(trifluoromethyl)quinazolin-4-yl)thio)acetyl)thiophen-2-yl)methyl)acetamide], 5.48 to 6.00.
In the case of `Cn1ncc2c(SCC(=O)c3ccc(CNS(C)(=O)=O)s3)ncnc21` [Example 87] it was 5.48 to 6.00.
As to `CCOc1cc2c(SCC(=O)c3ccc(CNC(=O)CO)s3)nc(C)nc2cn1` [Example 145, N-((5-(2-((6-ethoxy-2-methylpyrido[3,4-d]pyrimidin-4-yl)thio)acetyl)thiophen-2-yl)methyl)-2-hydroxyacetamide], the negative logarithm of the IC50 (pIC50) is no less than 7.00.
Under `CN(Cc1ccc(C(=O)CSc2ncnc3c2cnn3C)s1)S(=O)(=O)C1CC1` [Example 91, N-methyl-N-((5-(2-((1-methyl-1H-pyrazolo[3,4-d]pyrimidin-4-yl)thio)acetyl)thiophen-2-yl)methyl)cyclopropanesulfonamide] stands less than 5.48.
Under `COc1cc2c(SCC(=O)c3ccc(CN(C)C(=O)CO)s3)nc(C(F)(F)F)nc2cn1` [Example 159, 2-hydroxy-N-((5-(2-((6-methoxy-2-(trifluoromethyl)pyrido[3,4-d]pyrimidin-4-yl)thio)acetyl)thiophen-2-yl)methyl)-N-methylacetamide] stands no less than 7.00; under `COc1ccc2nc(C)nc(SCC(=O)c3ccc(CNC(=O)CO)s3)c2c1` [Example 60, 2-Hydroxy-N-((5-(2-((6-methoxy-2-methylquinazolin-4-yl)thio)acetyl)thiophen-2-yl)methyl)acetamide], 6.30 to 7.00; under `COc1ccc2nc(C)nc(SCC(=O)c3ccc(CNC(=O)C4CN(C)C4)s3)c2c1` [Example 178, N-((5-(2-((6-methoxy-2-methylquinazolin-4-yl)thio)acetyl)thiophen-2-yl)methyl)-1-methylazetidine-3-carboxamide], no less than 7.00.
In the case of `COc1ccc2nc(C(F)F)nc(SCC(=O)c3ccc(CNC(=O)CO)s3)c2c1` [Example 139, N-((5-(2-((2-(difluoromethyl)-6-methoxyquinazolin-4-yl)thio)acetyl)thiophen-2-yl)methyl)-2-hydroxyacetamide] it was 6.30 to 7.00; in that of `COCC(=O)NCc1ccc(C(=O)CSc2nc(C)nc3ncc(OC)cc23)s1` [Example 163, 2-methoxy-N-((5-(2-((6-methoxy-2-methylpyrido[2,3-d]pyrimidin-4-yl)thio)acetyl)thiophen-2-yl)methyl)acetamide], 6.30 to 7.00; in that of `O=C(CSc1nc(C(F)(F)F)nc2ncccc12)c1ccc(CN2CCC(O)C2=O)s1` (stereo in doubt) [Example 155, (S)-3-hydroxy-1-((5-(2-((2-(trifluoromethyl)pyrido[2,3-d]pyrimidin-4-yl)thio)acetyl)thiophen-2-yl)methyl)pyrrolidin-2-one], no less than 7.00.
Take `Cc1nc(SCC(=O)c2ccc(CNC(=O)CO)s2)c2ccccc2n1` [Example 66, 2-hydroxy-N-((5-(2-((2-methylquinazolin-4-yl)thio)acetyl)thiophen-2-yl)methyl)acetamide]: the pIC50 was 6.30 to 7.00.
